For 1 compound, Toxic and Dose results are on record in ChEMBL document CHEMBL1132010, “In vivo anti-HIV activity of (+)-calanolide A in the hollow fiber mouse model” (Bioorg Med Chem Lett, 1999).

Data set [1] is described as follows: Compound dose that was proved to be lethally toxic to mice (q12h). In kind it is ADME. To be noted: mouse, in vivo.
The subject of data set [2] is Mus musculus. The data set can be described thus: Compound dose (dosing schedule - q8h) that produced a decrease in RT activity without protection against decreased cell viability in mice. In kind it is functional.
The nature of data set [3]: Compound dose that was proved to be lethally toxic to mice (q24h). In kind it is ADME. To be noted: mouse, in vivo.
In data set [4] the test system is Mus musculus. Nature of the data set: Compound dose required to produce significant anti-HIV activity in mice after oral administration, given twice daily (q12h). In kind it is functional.
For data set [5], the system named is Mus musculus. Nature of the data set: Compound dose required to produce significant anti-HIV activity in mice after i.p. administration, given twice daily (q12h). In kind it is functional.
Data set [6] has as its system Mus musculus. Nature of the data set: Compound dose (dosing schedule - q8h) that prevented a decrease in RT activity and p24 antigen production without increase in cell viability in mice.* dose was found to be toxic. In kind it is functional.

Each structure is given as a SMILES string.

For `CCCc1cc(=O)oc2c3c(c4c(c12)OC(C)(C)C=C4)O[C@H](C)[C@@H](C)[C@@H]3O` [CALANOLIDE A], the Toxic was 200 mg/kg in data set [1] and 300 mg/kg in data set [3]. Also, the Dose in the data set with Mus musculus [2] is 100 mg/kg; in the data set with Mus musculus [4] it was 150 mg/kg; with Mus musculus [5], 200 mg/kg; with Mus musculus [6], 150 mg/kg.
